Measurements as given in PMC7104545, “Unusually persistent Gαi-signaling of the neuropeptide Y2 receptor depletes cellular Gi/o pools and leads to a Gi-refractory state” (Cell Communication and Signaling : CCS, 2020).
“Also recorded” adds a separate entry of the source. Where a SMILES comes first, the peptide text is derived from it. [ ]: non-standard residue; d: D form. Ahx = NCCCCCC(=O)O

Columns and labels:
[1] = biological target: T1, hY2R (Homo sapiens, UniProt P49146); experiment: cAMP assay, HEK293 co-transfected hY2R/hY1R, Y2R addressed; assay type: cell-based
T1 construct: expressed in transfected cells; host or cells: HEK293 (transient transfection, pEYFP-N1 vector)
T1 sequence (P49146 1-381): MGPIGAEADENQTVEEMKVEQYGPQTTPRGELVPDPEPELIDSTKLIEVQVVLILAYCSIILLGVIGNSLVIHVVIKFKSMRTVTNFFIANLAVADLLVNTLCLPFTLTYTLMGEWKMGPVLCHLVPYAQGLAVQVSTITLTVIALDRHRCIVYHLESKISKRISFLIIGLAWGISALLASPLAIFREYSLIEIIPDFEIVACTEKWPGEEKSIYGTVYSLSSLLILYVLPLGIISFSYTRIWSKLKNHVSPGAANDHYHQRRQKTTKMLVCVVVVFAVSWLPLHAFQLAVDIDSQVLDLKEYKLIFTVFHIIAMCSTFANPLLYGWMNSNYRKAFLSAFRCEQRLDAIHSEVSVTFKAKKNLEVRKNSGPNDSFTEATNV
Description: (§1) HEK293 cells were grown in 25 cm^2 culture flask up to 70–80% confluence in a humidified atmosphere at 37 °C and 5% CO2. Co-transfection of 3000 ng pGL4.29[luc2P/CRE/Hygro] (Promega) plasmid and 3000 ng plasmid encoding for the respective receptor was performed using Metafectene® Pro (Biontex Laboratories GmbH) according to the manufacturer’s protocol. One-day post-transfection cells were seeded into white poly-D-lysine covert 96-well plates (Greiner Bio-one) and incubated overnight at 37 °C. For pertussis toxin experiments, medium was supplied with certain concentration (100 ng/ml, 250 ng/ml, 500 ng/ml) of pertussis toxin (Sigma). Two-day post-transfection cAMP experiments were performed with the help of ONE-Glo substrate (Promega), allowing luminescence measurement with the Tecan Infinite M200. […] For recycling, cells were incubated for 60 min with DMEM supplemented with 100 μg/ml CHX (Merck/Calbiochem®). […] As a positive control only 5 μM forskolin were added to the wells. After incubation, medium was exchanged by 30 μl fresh DMEM (RT). 30 μl ONE-Glo substrate was added and after 5 min of incubation the cAMP level was measured by detecting the luminescence. For co-transfection experiments the transfection of two receptors simultaneously and pGL4.29[luc2P/CRE/Hygro] plasmid were performed in a ratio 1:1:1, keeping the total amount of 6000 ng. […] The second stimulation was performed in a peptide concentration range, addressing the respective receptor that was missed in the first round.

[2] = biological target: T2, neuropeptide Y2R (endogenous in SH-SY5Y cells) (Homo sapiens, UniProt P49146); experiment: Ca^2+-flux assay, SH-SY5Y cells transfected with chimeric Gqi; assay type: cell-based
T2 construct: SH-SY5Y cells that endogenously expressing Y2R; endogenous in cells; host or cells: SH-SY5Y (transiently transfected with chimeric Gqi protein only)
T2 sequence (P49146 1-381): T1 sequence (P49146 1-381)
Description: (§2) HEK293 cells were grown in 25 cm^2 culture flask up to 70–80% confluence in a humidified atmosphere at 37 °C and 5% CO2. Co-transfection of 800 ng plasmid encoding the GαΔ6qi4myr protein and 3200 ng plasmid encoding for the Y2R fused C-terminally to eYFP was performed by using Metafectene® Pro (Biontex Laboratories GmbH) according to manufacturer’s protocol. One-day post transfection, cells were re-seeded (100.000 cells/well) into a black poly-D-lysine covert 96-well plates (Greiner Bio-one) and incubated overnight at 37 °C. Two-days post transfection Ca^2+ experiments were performed with the help of the FLIPR® Calcium Assay Kit (Molecular Devices). […] For recycling, cells were incubated for 60 min with assay buffer (20 mM HEPES, 2.5 mM Probenecid in HBSS, pH 7.5) supplemented with 100 μg/ml CHX (Merck/Calbiochem®) and 1 μM Fluor-2-AM staining dye. […] For the GαΔ6qi4myr overexpression experiments, the transfection ratio between receptor DNA and G protein DNA was varied from the initial concentration 4:1, using a total DNA amount of 4000 ng. By keeping the G protein amount equal to 800 ng, the resulting discrepancy was filled with pcDNA3.

[3] = test system: adenylyl cyclase; experiment: Impact of Ca^2+ and PKC on cellular cAMP level, HEK293-hY2R-eYFP; assay type: cell-based; settings: 10 µM PKC inhibitor 30 min prior to stimulation with peptide; n≥2
[4] = biological target: T3, human neuropeptide Y2 receptor (hY2R) (Homo sapiens, UniProt P49146); design: expressed in transfected cells; host or cells: HEK293 (transient transfection, pEYFP-N1 vector); settings: ref [29]; cited from earlier work
T3 sequence (P49146 1-381): T1 sequence (P49146 1-381)
Excerpt: Contrary to the obviously low arrestin binding affinity, the unoccupied receptor apparently exists in a conformation that strongly favors G protein coupling. Kaiser et al. recently reported two different affinity states concerning Y2R binding properties. […].

[5] = biological target: T3, human neuropeptide Y2 receptor (hY2R); experiment: cAMP reporter gene assay, HEK293-hY2R; assay type: cell-based; design: expressed in transfected cells; host or cells: HEK293 (transient transfection, pEYFP-N1 vector)
Description: as §1

[6] = biological target: T3, human neuropeptide Y2 receptor (hY2R); experiment: TAMRA-NPY uptake in second stimulation, live cell microscopy (HEK293-HA-Y2R-eYFP); assay type: cell-based; design: expressed in transfected cells; host or cells: HEK293 (transient transfection, pEYFP-N1 vector); settings: n ≥ 3
Description: HEK293 or HEK293-HA-Y2R-eYFP were re-seeded (150.00/well) into sterile poly-D-lysine covered μ-slide 8 wells (Ibidi) and grown in a humidified atmosphere at 37 °C and 5% CO2. For transfection, cells were cultured up to 70–80% confluency and subsequently transfected with 1.0 μg total DNA using Lipofectamine® 2000 transfection reagent (Invitrogen) according to the manufacturer’s protocol. For single transfection in empty HEK293 cells 1.0 μg of HA-Y2R-eYFP-N1 plasmid DNA was used. At the experimental day cells were starved in Opti-MEM® reduced serum medium (Gibco®) containing Hoechst33342 (Sigma) for 30 min at 37 °C. LysoTracker®Blue with a final concentration of 1 μM was used for visualization of the lysosomes. […] For recycling studies, cells were washed twice with acidic wash buffer (50 mM glycine, 100 mM NaCl, pH 3.0) and neutralized once with Hank’s balanced salt solution (HBSS; PAA), followed by a recovery period for 60 min in ligand-free media supplemented with 100 μg/ml cycloheximide (CHX; Merck/Calbiochem®) and with or without 20 mM NH4Cl as an expression inhibitor and recycling inhibitor respectively. […] All microscopy images were obtained using the AxioObserver.Z1 microscope equipped with an ApoTome imaging system (Zeiss, Jena). Within one experimental setup, all images were taken using a fixed exposure time for the single fluorescence channels.
Microscopy pictures were processed with the standard software Axio vision 4.8 and exported as an 8 Bit TIFF file (Tagged Image File Format). The open access software Image J was applied for the analysis of the pictures. For determination of mean cell surface fluorescence (MCSF) ten nonadjacent cells per image were measured using the segmented line function. Calculation of the relative TAMRA fluorescence, the Raw Intensity Density was measured under distinct conditions. The particular background fluorescence of each image was subtracted after every evaluation. Since this program uses the single gray levels for evaluation, the calculated values were evaluated retroactively as relative fluorescence intensity and analyzed with the statistical program GraphPad Prism.

[7] = test system: HEK293-HA-hY2R-eYFP cells; experiment: Intracellular fate of TAMRA-NPY (live cell microscopy, lysosomal stain, EEA1 immunostaining); assay type: cell-based, human
Description: HEK293-HA-hY2R-eYFP cells were seeded on poly-D-lysine coated coverslips (500.000 /well). […] Gradually preparation of all samples was performed in 10 min intervals of 2% paraformaldehyde (PFA)/PBS on ice, 2% PFA/PBS at RT and finally 4% PFA/PBS at RT. Samples were blocked and permeabilized with 10% BSA/0.1% TritonX-100/PBS for 1 h at RT. Incubation with anti-EEA1 (Santa Cruz, sc-33,585) (1:100) in 1% BSA/0.01% TritonX-100/PBS occurred overnight at 4 °C. The next day, samples were treated with anti-rabbit-AF350 (InvitrogenTM) (1:400) in 1% BSA/0.01% TritonX- 100/PBS for 2 h at RT and mounted with Fluoromount-G®.

[8] = test system: hY4R; experiment: Ca^2+-flux assay, HEK293 co-transfected hY2R/hY4R, PP to address Y4R; assay type: cell-based, human; settings: 1 μM NPY first, acidic wash, 60 min recovery; Fig. S3B; n≥2
Description: as §2

[9] = test system: melanocortin 1 receptor (MCR1); experiment: cAMP assay, HEK293 co-transfected hY2R/melanocortin 1 receptor; assay type: cell-based; settings: PTX present; first stimulation 1 μM NPY
Description: HEK293 cells were grown in 25 cm^2 culture flask up to 70–80% confluence in a humidified atmosphere at 37 °C and 5% CO2. Co-transfection of 3000 ng pGL4.29[luc2P/CRE/Hygro] (Promega) plasmid and 3000 ng plasmid encoding for the respective receptor was performed using Metafectene® Pro (Biontex Laboratories GmbH) according to the manufacturer’s protocol. One-day post-transfection cells were seeded into white poly-D-lysine covert 96-well plates (Greiner Bio-one) and incubated overnight at 37 °C. For pertussis toxin experiments, medium was supplied with certain concentration (100 ng/ml, 250 ng/ml, 500 ng/ml) of pertussis toxin (Sigma). Two-day post-transfection cAMP experiments were performed with the help of ONE-Glo substrate (Promega), allowing luminescence measurement with the Tecan Infinite M200. […] For recycling, cells were incubated for 60 min with DMEM supplemented with 100 μg/ml CHX (Merck/Calbiochem®). […] As a positive control only 5 μM forskolin were added to the wells. After incubation, medium was exchanged by 30 μl fresh DMEM (RT). 30 μl ONE-Glo substrate was added and after 5 min of incubation the cAMP level was measured by detecting the luminescence. For co-transfection experiments the transfection of two receptors simultaneously and pGL4.29[luc2P/CRE/Hygro] plasmid were performed in a ratio 1:1:1, keeping the total amount of 6000 ng. […]

[10] = test system: HEK293-hY2R cells; experiment: Cell toxicity by microscopy (cell morphology); assay type: cell-based, human; settings: PTX 250 ng/ml

Work on `CC[C@H](C)[C@H](NC(=O)[C@H](Cc1ccc(O)cc1)NC(=O)[C@H](Cc1c[nH]cn1)NC(=O)[C@H](CCCNC(=N)N)NC(=O)CCCCCNC(=O)[C@H](CCCCN)NC(=O)[C@H](CO)NC(=O)[C@@H]1CCCN1C(=O)[C@@H](N)Cc1ccc(O)cc1)C(=O)N[C@@H](CC(N)=O)C(=O)N[C@@H](CC(C)C)C(=O)N[C@H](C(=O)N[C@H](C(=O)N[C@@H](CCCNC(=N)N)C(=O)N[C@@H](CCC(N)=O)C(=O)N[C@@H](CCCNC(=N)N)C(=O)N[C@@H](Cc1ccc(O)cc1)C(N)=O)[C@@H](C)O)[C@@H](C)CC` [Ahx^5–24-NPY] (H-YPSK[Ahx]RHYINLITRQRY-NH2) yielded an Emax ([1]; HEK293, second stimulation after 1 μM F^7,P^34-NPY and 60 min recovery, Ahx^5–24-NPY control curve = 100%) of 74%.
Work on `CC[C@H](C)[C@H](NC(=O)[C@H](Cc1ccc(O)cc1)NC(=O)[C@H](Cc1cnc[nH]1)NC(=O)[C@H](CCCNC(=N)N)NC(=O)CCCCCNC(=O)[C@H](CCCCN)NC(=O)[C@H](CO)NC(=O)[C@@H]1CCCN1C(=O)[C@@H](N)Cc1ccc(O)cc1)C(=O)N[C@@H](CC(N)=O)C(=O)N[C@@H](CC(C)C)C(=O)N[C@H](C(=O)N[C@H](C(=O)N[C@@H](CCCNC(=N)N)C(=O)N[C@@H](CCC(N)=O)C(=O)N[C@@H](CCCNC(=N)N)C(=O)N[C@@H](Cc1ccc(O)cc1)C(N)=O)[C@@H](C)O)[C@@H](C)CC` [Ahx^5–24-NPY] (H-YPSK[Ahx]RHYINLITRQRY-NH2) yielded an EC50 ([1]; Y1R/Y2R co-transfected HEK293, no first stimulation) of 14 nM, an EC50 ([1]; second stimulation after 1 μM F^7,P^34-NPY and 60 min recovery) of 28 nM and an EC50 ([2]; no first stimulation, SH-SY5Y + Gqi, n ≥ 3) of 41.9 nM.
With `CN(C)CCCn1cc(C2=C(c3c[nH]c4ccccc34)C(=O)NC2=O)c2ccccc21` [Bisindolylmaleimide I] the “effect of PKC inhibitor on adenylyl cyclase inhibition” value [3] was “abolished inhibitory effect of adenylyl cyclases and Y2R downstream signaling”.
For `Nc1nc2c(ncn2[C@@H]2O[C@H](COP(=O)(O)OP(=O)(O)OP(O)(O)=S)[C@@H](O)[C@H]2O)c(=O)[nH]1` [GTPγS, Guanosine 5′-O-[gamma-thio] triphosphate], the “effect of GTPγS on total binding” value [4] is given as “loss in total binding”.
In the case of `C=C[C@@]1(C)CC(=O)[C@]2(O)[C@@]3(C)[C@@H](O)CCC(C)(C)[C@@H]3[C@H](O)[C@H](OC(C)=O)[C@@]2(C)O1` [forskolin], the “increase of baseline intracellular cAMP by forskolin” value ([5]; 5 μM forskolin, Y2R-expressing HEK293, without NPY) is reported as ~ 10 fold.
For “TAMRA-NPY: fluorescent NPY derivative, 5-carboxytetramethylrhodamine (TAMRA)-NPY”, the “TAMRA-NPY internalization in second stimulation, comparison 0 RE vs 60 RE ± NH4Cl” value ([6]; 1 μM NPY first, then 100 nM TAMRA-NPY 60 min) was “no difference in TAMRA internalization”, the “TAMRA-NPY uptake, 0 RE” value ([6]; 1 μM NPY, acidic wash, direct second stimulation 100 nM TAMRA-NPY 60 min, 37 °C, control = 100%) was 45 ± 5% and the “TAMRA-NPY uptake, 60 RE” value ([6]; 1 μM NPY, wash, 60 min recovery with CHX, then 100 nM TAMRA-NPY 60 min, control = 100%) was 49 ± 4%. For the same molecule, the “TAMRA-NPY uptake, 60 RE + NH4Cl” value ([6]; as 60 RE with 20 mM NH4Cl during recovery, control = 100%) was 48 ± 46%, the “localisation after 60 min recycling period” value ([7]; 100 nM TAMRA-NPY, lysosomal marker LysoTracker Blue) was “degradation in lysosomes; also recorded: co-localized with the lysosomal marker” and the “localisation in early endosomes” value ([7]; EEA1 immunostaining) was “intracellular accumulation of TAMRA-NPY in early and sorting endosomes”. For the same molecule, the co-internalization with receptor ([7]; TAMRA-NPY 60 min, 37 °C) was “Co-internalization of the ligand-receptor-complex was observed”.
For pancreatic polypeptide [PP], the “Ca^2+ response of PP after first stimulation with NPY” value [8] was “obvious loss in activity, since no Ca^2+response was measured” and the “Ca^2+ activity in SH-SY5Y” value ([2]; SH-SY5Y, endogenous background, n≥3) was “no activity”.
With pertussis toxin [PTX] the “effect on inhibitory effect of Y2R (MCR1/Y2R cells)” value [9] was “completely abolished; also recorded: abolishing the slight inhibitory effect”, the “cell toxicity (cell morphology)” value [10] was “no differences in cell morphology were observed” and the “effect on maximal forskolin-induced cAMP response after NPY” value ([5]; PTX 250 ng/ml, treatment of cells with NPY first) was “AC-activity is rescued; also recorded: clearly rescued the maximal cAMP response; also recorded: adenylyl cyclase was still activatable by forskolin”. For the same molecule, the “effect of varying PTX concentrations on AC-activity” value ([5]; PTX 100, 250, 500 ng/ml, compared to control curve (Fig. 3f)) was “caused inhibition of AC-activity compared to control curve”.
